Assay results: patent US10696692B2, “Amido-benzyl sulfone and sulfoxide derivates” (Forma TM, LLC, priority 2012, dated 2020)

Experiments:
NAMPT = NAMPT (Homo sapiens (Human), UniProt P43490); assay: Assay 1: Biochemical Inhibition Assay (NAMPT enzymatic reaction, NMN quantified by mass spectrometry); conditions: read-out: Biochemical (IC50);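 also: recombinant His-tagged human NAMPT preincubated with compound 15 min, then reacted 30 min at rt with 1 µM NAM, 100 µM PRPP, 2.5 mM ATP, NMN product read by RapidFire MS, normalized to L-Cystathionine internal standard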
NAMPT, sequence (P43490 whole entry): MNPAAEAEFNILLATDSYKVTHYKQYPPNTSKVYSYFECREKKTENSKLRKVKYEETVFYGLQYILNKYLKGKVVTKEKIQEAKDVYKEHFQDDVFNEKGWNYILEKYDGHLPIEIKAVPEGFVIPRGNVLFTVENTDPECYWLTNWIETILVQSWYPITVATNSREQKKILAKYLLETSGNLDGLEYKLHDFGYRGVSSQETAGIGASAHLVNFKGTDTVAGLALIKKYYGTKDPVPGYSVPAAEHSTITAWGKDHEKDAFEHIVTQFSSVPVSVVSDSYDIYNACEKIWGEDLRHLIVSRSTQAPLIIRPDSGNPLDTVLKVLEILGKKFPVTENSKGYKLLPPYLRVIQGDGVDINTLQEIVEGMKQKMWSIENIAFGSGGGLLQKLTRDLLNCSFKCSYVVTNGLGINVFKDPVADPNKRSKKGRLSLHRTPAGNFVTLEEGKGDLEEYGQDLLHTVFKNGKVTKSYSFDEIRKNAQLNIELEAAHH

A2780 cells = assay: Assay 2: In-Vitro Cell Proliferation Assay (A2780 cells, SRB readout, 72 hours); assay type: cell-based; conditions: Homo sapiens, A2780, 72 h, A2780 cells, 72 hours, SRB; read-out: Cell Proliferation (IC50);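 also: viable cells counted via sulforhodamine B staining, absorbance at 570 nm, after 72 h exposure at 37 °C, DMSO 0.1% as control, media-only background subtracted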

Row | Compound | IC50 (NAMPT) | IC50 (A2780 cells)
1 | CC(C)(C)OC(=O)N1CCC2(CCN(S(=O)(=O)c3ccc(CNC(=O)c4ccc5nccn5c4)cc3)CC2)C1 [Example 103, 8-(4-{[(Imidazo[1,2-a]pyridine-6-carbonyl)-amino]-methyl}-benzenesulfonyl)-2,8-diaza-spiro[4.5]decane-2-carboxylic acid tert-butyl ester] | 29.5 nM | 39.4 nM
2 | N#CCCN1CCN(S(=O)(=O)c2ccc(CNC(=O)c3ccc4nccn4c3)cc2)CC1 [Example 104, Imidazo[1,2-a]pyridine-6-carboxylic acid 4-[4-(2-cyano-ethyl)-piperazine-1-sulfonyl]-benzylamide] | 26.9 nM | 8.8 nM
3 | CN(C)CCN1CCN(S(=O)(=O)c2ccc(CNC(=O)c3ccc4nccn4c3)cc2)CC1 [Example 105, Imidazo[1,2-a]pyridine-6-carboxylic acid 4-[4-(2-dimethylamino-ethyl)-piperazine-1-sulfonyl]-benzylamide] | 6.8 nM | 9 nM
4 | O=C(NCc1ccc(S(=O)(=O)N2CCC[C@H]2CO)cc1)c1ccc2nccn2c1 [Example 107, Imidazo[1,2-a]pyridine-6-carboxylic acid 4-((S)-2-hydroxymethyl-pyrrolidine-1-sulfonyl)-benzylamide] | 23.7 nM | 15.4 nM
5 | CN(C)[C@H]1CCN(S(=O)(=O)c2ccc(CNC(=O)c3ccc4nccn4c3)cc2)C1 [Example 108, Imidazo[1,2-a]pyridine-6-carboxylic acid 4-((S)-3-dimethylamino-pyrrolidine-1-sulfonyl)-benzylamide] | 25.6 nM | 5.3 nM
6 | CN1CCN(C2CCN(S(=O)(=O)c3ccc(CNC(=O)c4ccc5nccn5c4)cc3)CC2)CC1 [Example 110, Imidazo[1,2-a]pyridine-6-carboxylic acid 4-[4-(4-methyl-piperazin-1-yl)-piperidine-1-sulfonyl]-benzylamide] | 3.1 nM | 3.3 nM
7 | CC(=O)N1CCC(S(=O)(=O)c2ccc(CNC(=O)c3cc4cnccc4[nH]3)cc2)CC1 [Example 113, 1H-Pyrrolo[3,2-c]pyridine-2-carboxylic acid 4-(1-acetyl-piperidine-4-sulfonyl)-benzylamide] | 64.2 nM | 44.6 nM
8 | O=C(NCc1ccc(S(=O)(=O)C2CCN(C3COC3)CC2)cc1)c1ccc2nccn2c1 [Example 114, Imidazo[1,2-a]pyridine-6-carboxylic acid 4-(l-oxetan-3-yl-piperidine-4-sulfonyl)-benzylamide] | 19.4 nM | 5.6 nM

More lines, in order of falling IC50 (NAMPT), values ahead:

Row | IC50 (NAMPT) | IC50 (A2780 cells) | Compound
9 | 229 nM | 44.5 nM | O=C(NCc1ccc(S(=O)(=O)N2CCN(C3COC3)CC2)cc1)c1cnc2[nH]ncc2c1 [Example 117, 1H-Pyrazolo[3,4-b]pyridine-5-carboxylic acid 4-(4-oxetan-3-yl-piperazine-1-sulfonyl)-benzylamide]
10 | 48.6 nM | 57.7 nM | O=C(NCc1ccc(S(=O)(=O)N2CCC[C@@H]2CO)cc1)c1ccc2nccn2c1 [Example 106, Imidazo[1,2-a]pyridine-6-carboxylic acid 4-((R)-2-hydroxymethyl-pyrrolidine-1-sulfonyl)-benzylamide]
11 | 37.3 nM | 11.5 nM | O=C(NCc1ccc(S(=O)(=O)C2CCN(C3COC3)CC2)cc1)c1cc2cnccc2[nH]1 [Example 115, 1H-Pyrrolo[3,2-c]pyridine-2-carboxylic acid 4-(1-oxetan-3-yl-piperidine-4-sulfonyl)-benzylamide]
12 | 25.9 nM | 20.5 nM | O=C(NCc1ccc(S(=O)(=O)N2CCC(F)(F)CC2)cc1)c1ccc2nccn2c1 [Example 112, Imidazo[1,2-a]pyridine-6-carboxylic acid 4-(4,4-difluoro-piperidine-1-sulfonyl)-benzylamide]
13 | 2.7 nM | 3.9 nM | CN1CCN(C(=O)C2CCN(S(=O)(=O)c3ccc(CNC(=O)c4ccc5nccn5c4)cc3)CC2)CC1 [Example 109, Imidazo[1,2-a]pyridine-6-carboxylic acid 4-[4-(4-methyl-piperazine-1-carbonyl)-piperidine-1-sulfonyl]-benzylamide]
